Assay results from paper PMC6588697, “Lugdunin amplifies innate immune responses in the skin in synergy with host- and microbiota-derived factors” (Nature Communications, 2019).
Several values for one entry are separate records, joined by “and”; a condition that tells them apart may be missing. Equal entries are not always repeated.

Assays:
[1] = system: primary human neutrophils, erythrocytes, HL60; conditions: cited from earlier work
Text: Lugdunin represents the founding member of the new class of cyclic thiazolidine-containing peptide antibiotics. […] In our previous work, we have shown that lugdunin treatment led to a strong reduction and even complete eradication of viable S. aure ...

[2] = system: HEK293-TLR2 cells; assay: CXCL8 release by HEK-TLR2 cells (LEGENDplex); type: cell-based, human
Method: (§1) Fig. 2 Induction of chemokine (C-X-C motif) ligand 8/macrophage inflammatory protein-2 (CXCL8/MIP-2) by lugdunin is TLR2/MyD88-dependent. a HEK-control or HEK-TLR2 cells were treated with 2 μM lugdunin for 5 h and subsequently the CXCL8 concentration in the supernatant was analyzed by LEGENDplex^TM (BioLegend). Shown is one representative experiment of three independent experiments with two technical replicates ± s.e.m. b HEK-control or HEK-TLR2 cells were treated with increasing concentrations of lugdunin for 5 h and subsequently expression of CXCL8 was analyzed and normalized to actin. Shown is one representative experiment of three independent experiments with two technical replicates ± s.e.m. c Schematic overview of the mouse experiments: 6–8-week-old female C5BL/6 WT, MyD88-knockout (ko), or 5xTLR-ko mice were epicutaneously treated with 1.5 µg lugdunin or phosphate-buffered saline (PBS) as a control. […] Significant differences to control treatments were analyzed by an unpaired two-tailed t test (*P < 0.05; **P < 0.01; ***P < 0.001). f Representative MIP-2-stained paraffin-embedded mouse skin sections. […]
(§2) Supplementary Figure 2: CXCL8 controls and other cytokines in mouse skin 46 a: HEK-control cells or HEK -TLR2 cells were treated with 100 ng/mL Pam2Cys for 5 47 hours and subsequently the CXCL8 concentration in the supernatant was analyzed. […]

[3] = system: HEK293 cells; assay: CXCL8 release by HEK-control cells (LEGENDplex); type: cell-based, human; conditions: lugdunin 2 µM, 5 h, two technical replicates, Fig 2a
Method: as §1, §2

[4] = system: PHKs; assay: Viability assay (MUH) in PHKs; type: cell-based, human
Method: Effects of the used peptides on keratinocytes, PBMCs, and nasal and tracheal epithelial cell viability were tested using 4-methylumbelliferyl heptanoate (MUH). Briefly, cells were treated with peptides and respective peptide combinations for 24 h, followed by incubation with 100 μg/mL MUH (Sigma-Aldrich) in PBS for 1 h at 37 °C. The absolute fluorescence intensity at λex of 355 nm and λem of 460 nm was measured using a Fluoroskan II (Labsystems).
10 a: PHKs were treated with increasing concentrations of lugdunin for 24 hours and 11 subsequently expression of CAMP (LL-37) was analyzed and normalized to actin. […]
14 b+c: PHKs were treated with increasing concentrations of lugdunin for 24 hours and 15 subsequently the concentration of LL-37 and CXCL8 in the supernatant was analyzed . […]
18 d: Representative hematoxylin-eosin-stained paraffin-embedded human 3D skin 19 equivalent. […] After 24 hours, the concentration of LL-37 and CXCL8 in the 21 supernatant was analyzed. […] Significant differences to control treatments were analyzed 23 by an unpaired two-tailed t-test (*P<0.05). […]
26 f: PHKs were treated with 2 µM natural lugdunin, synthetic lugdunin, N -Acetyl lugdunin 27 (grey bars) or 100 ng/mL Pam2Cys or Pam3Cys (white bars) as positive control for 5 28 hours and subsequently expression of CXCL8 was analyzed and normalized to actin. […]

Substance: Lugdunin
- lysis of primary human neutrophils, erythrocytes or HL60 (in words) [1]: did neither cause lysis
- CXCL8 concentration in supernatant ([2]; HEK-TLR2 cells, lugdunin 2 µM, 5 h, two technical replicates, Fig 2a): 564.521 and 585.121
- CXCL8 induction level in HEK-TLR2 cells, times lower than Pam2Cys/Pam3Cys-mediated TLR2 activation ([2]; text to Fig 2a and Supp Fig 2): 1000 fold
- CXCL8 concentration in supernatant [3]: 39.328 and 39.600
- toxicity to the cell types analyzed (in words) [4]: not toxic
